Assay results taken from patent US4056673A, “Phosphonoacetic acid derivatives of nucleosides” (Hoffmann-La Roche Inc., priority 1976, dated 1977).
Where two headings read alike, the source gives them in different places.

Tests used:
[1] = tested on: herpes simplex type 1 virus; experiment: animal or person; format: in vivo, mice (Swiss albino); details: intraperitoneally, -24, 0, +24 hr, mice, day 21, disodium salt; for ED50: Human alphaherpesvirus 1, ip, 504 h, read-out: PD50 (Protective Dose50)
[2] = tested on: herpes simplex type 2 virus; experiment: animal or person; format: in vivo, mice (Swiss albino); details: Human alphaherpesvirus 2, ip, 504 h, intraperitoneally, -24, 0, +24 hr, mice, day 21, read-out: PD50 (Protective Dose50)
[3] = tested on: pseudorabies virus; experiment: animal or person; format: in vivo, mice (Swiss albino); details: Suid alphaherpesvirus 1, in Mus musculus, ip, 504 h, read-out: PD50 (Protective Dose50)
[4] = tested on: leukemia L1210 ascites; experiment: Leukemia L1210 ascites in mice; format: in vivo; details: 100 mg/kg intraperitoneally, BDF1 mice
[5] = tested on: sarcoma 180
[6] = tested on: Ehrlich carcinoma; details: for C/T Index: Ehrlich carcinoma; for No. survivors/No. tested: mouse, in vivo, ip
[7] = tested on: KA-31; details: for activity against KA-31 solid tumor (in words): 14 ip treatments
[8] = tested on: herpes simlpex infection; details: oral and topical; Shipkowitz et al. 1973; cited from earlier work
[9] = tested on: Marek's disease; details: poultry; U.S. Pat. No. 3,836,650; cited from earlier work

For Nc1ncnc2c1ncn2[C@H]1C[C@H](O)[C@@H](COP(=O)(O)CC(=O)O)O1 [2'-Deoxyadenosine-5'-monocarboxymethylphosphonate, monoacetonate], the ED50 [1] was 444 mg/kg.
O=C(O)CP(=O)(O)OC[C@H]1O[C@@H](n2cc(I)c(=O)[nH]c2=O)C[C@@H]1O [5-Iodo-2'-deoxyuridine-5'-mono-carboxymethylphosphonate] gave an ED50 [1] of 110 mg/kg.
In the case of Nc1ncnc2c1ncn2[C@@H]1O[C@H](COP(=O)(O)CC(=O)O)[C@@H](O)[C@H]1O [Adenosine-5'-mono-carboxymethylphosphonate], the ED50 [1] is reported as 180 mg/kg, the ED50 [2] is reported as 575 mg/kg and the ED50 [3] is reported as 386 mg/kg.
In the case of O=C(O)CP(=O)(O)OC[C@H]1O[C@@H](n2cc(F)c(=O)[nH]c2=O)C[C@@H]1O [Compound A, 5-Fluoro-2-deoxyuridine-5'-mono-carboxymethylphosphonate], the “activity against leukemia L1210 ascites (in words)” value [4] is reported as “inactive”, the “activity against sarcoma 180 (in words)” value ([5]; 12.5 mg/kg) is reported as “inactive” and the “activity against sarcoma 180 (in words)” value ([5]; 25 mg/kg) is reported as “active”. The “activity against sarcoma 180 (in words)” value ([5]; 50 mg/kg) was “active”, the “C/T Index” value ([5]; sarcoma 180, 12.5 mg/kg ip × 8) was 1.7 and the “C/T Index” value ([5]; sarcoma 180, 25 mg/kg ip × 8) was 2.2. For the same compound, the “C/T Index” value ([5]; sarcoma 180, 50 mg/kg ip × 8) was 5.9, the “activity against Ehrlich carcinoma (in words)” value ([6]; 6.25 mg/kg) was “inactive” and the “activity against Ehrlich carcinoma (in words)” value ([6]; 12.5 mg/kg) was “active”. The “activity against Ehrlich carcinoma (in words)” value ([6]; 25 mg/kg) was “active”, the “activity against Ehrlich carcinoma (in words)” value ([6]; 50 mg/kg) was “active” and the “C/T Index” value ([6]; 6.25 mg/kg ip × 8) was 1.5. For the same compound, the “C/T Index” value ([6]; 12.5 mg/kg ip × 8) was 2.4, the “C/T Index” value ([6]; 25 mg/kg ip × 8) was 3.4 and the “C/T Index” value ([6]; 50 mg/kg ip × 8) was 12.1. The “No. survivors/No. tested” value ([6]; 6.25 mg/kg) was 16/16, the “No. survivors/No. tested” value ([6]; 12.5 mg/kg) was 24/24 and the “No. survivors/No. tested” value ([6]; 25 mg/kg) was 23/24. For the same compound, the “No. survivors/No. tested” value ([6]; 50 mg/kg) was 21/24, the “activity against KA-31 solid tumor (in words)” value ([7]; 6.25 mg/kg) was “not at 6.25 mg/kg” and the “activity against KA-31 solid tumor (in words)” value ([7]; 12.5 mg/kg) was “activity was observed”. For the same compound, the “activity against KA-31 solid tumor (in words)” value ([7]; 25 mg/kg) was “activity was observed”, the “C/T Index” value ([7]; KA-31, 6.25 mg/kg ip × 14) was 1.8 and the “C/T Index” value ([7]; KA-31, 12.5 mg/kg ip × 14) was 3.8. The “C/T Index” value ([7]; KA-31, 25 mg/kg ip × 14) was 13.8.
Nc1nc2c(ncn2[C@@H]2O[C@H](COP(=O)(O)CC(=O)O)[C@@H](O)[C@H]2O)c(=O)[nH]1 [Guanosine-5'-mono-carboxymethylphosphonate] showed an ED50 [1] of 144 mg/kg.
For O=C(O)CP(=O)(O)O [Phosphonoacetic acid], the “antiviral activity against herpes simplex infection (in words)” value [8] is listed as “antiviral agent exhibiting oral and topical activity against herpes simlpex infection” and the “usefulness in combating Marek's disease (in words)” value [9] is listed as “useful in combating Marek's disease in poultry”.
With Cc1cn([C@H]2C[C@H](O)[C@@H](COP(=O)(O)CC(=O)O)O2)c(=O)[nH]c1=O [Thymidine-5'-mono-carboxymethylphosphonate] the ED50 [1] was 185 mg/kg.
O=C(O)CP(=O)(O)OC[C@H]1O[C@@H](n2ccc(=O)[nH]c2=O)[C@H](O)[C@@H]1O [Uridine-5'-mono-carboxymethylphosphonate] showed an ED50 [1] of 127 mg/kg.
With “Adenosine-2'-(or 3'),5'-bis-carboxymethylphosphonate” the “PD50 (Protective Dose50)” value ([1]; 30240 min) was 197 mg/kg.
